Counter-ions that a name gives are not always drawn.
The molecules below were run against T1, mGluR5 (Homo sapiens, UniProt P41594) (assay: inhibition of the glutamate induced elevation of intracellular Ca2+-concentration). Conditions: inhibition of glutamate induced elevation of intracellular Ca2+-concentration at a concentration of 10 μM.
T1 construct: expressed in transfected cells
Type: cell-based
Source text: This can be determined in vitro for example at recombinant human metabotropic glutamate receptors, especially PLC-coupled subtypes thereof such as mGluR5, using different procedures like, for example, measurement of the inhibition of the agonist induced elevation of intracellular Ca^2+ concentration in accordance with L. P. Daggett et al., Neuropharm.

T1 sequence (P41594 21-1180 isoform P41594-2 limits assumed): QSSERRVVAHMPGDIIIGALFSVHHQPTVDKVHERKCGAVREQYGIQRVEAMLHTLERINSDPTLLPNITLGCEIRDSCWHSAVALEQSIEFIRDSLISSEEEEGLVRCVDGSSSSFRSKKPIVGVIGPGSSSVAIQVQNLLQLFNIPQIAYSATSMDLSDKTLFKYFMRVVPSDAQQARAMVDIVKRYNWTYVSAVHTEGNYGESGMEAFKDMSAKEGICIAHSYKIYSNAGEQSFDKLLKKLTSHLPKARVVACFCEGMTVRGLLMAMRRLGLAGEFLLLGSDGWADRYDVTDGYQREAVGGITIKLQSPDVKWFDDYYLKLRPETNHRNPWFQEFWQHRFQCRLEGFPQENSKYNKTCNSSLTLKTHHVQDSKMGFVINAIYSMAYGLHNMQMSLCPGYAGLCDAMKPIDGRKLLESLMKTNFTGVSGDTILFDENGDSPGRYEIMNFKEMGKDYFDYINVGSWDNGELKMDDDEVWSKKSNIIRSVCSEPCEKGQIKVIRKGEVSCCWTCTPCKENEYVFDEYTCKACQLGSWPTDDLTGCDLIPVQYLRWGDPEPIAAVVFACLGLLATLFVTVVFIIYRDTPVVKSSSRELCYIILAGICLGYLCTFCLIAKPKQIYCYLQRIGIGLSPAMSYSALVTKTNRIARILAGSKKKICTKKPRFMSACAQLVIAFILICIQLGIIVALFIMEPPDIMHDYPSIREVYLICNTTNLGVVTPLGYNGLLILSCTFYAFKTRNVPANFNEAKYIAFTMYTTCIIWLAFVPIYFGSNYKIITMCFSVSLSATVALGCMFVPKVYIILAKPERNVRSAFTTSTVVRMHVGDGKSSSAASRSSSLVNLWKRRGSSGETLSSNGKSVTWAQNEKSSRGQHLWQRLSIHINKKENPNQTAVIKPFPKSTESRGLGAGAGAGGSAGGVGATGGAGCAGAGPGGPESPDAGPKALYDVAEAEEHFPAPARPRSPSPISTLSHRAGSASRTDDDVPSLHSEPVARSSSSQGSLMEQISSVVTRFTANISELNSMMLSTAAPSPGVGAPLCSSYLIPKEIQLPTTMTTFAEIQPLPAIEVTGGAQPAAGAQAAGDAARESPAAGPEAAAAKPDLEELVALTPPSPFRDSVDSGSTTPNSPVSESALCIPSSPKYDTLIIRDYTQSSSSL

Row | SMILES | mGluR5 Activity inh. at 10 μM [%]
1 | C[C@H]1CCCN(C(=O)c2ccc(Nc3ccc(Cl)cc3)nc2)C1 [Compound 1.12a, [6-(4-Chloro-phenylamino)-pyridin-3-yl]-(S-3-methyl-piperidin-1-yl)-methanone] | 99%
2 | Cc1ccc(Nc2ccc(C(=O)N3CCCC(C)C3)cn2)cc1 (centres unmarked) [Compound 1.13] | 96%
3 | Cc1ccc(Nc2ccc(C(=O)N3CCC[C@H](C)C3)cn2)cn1 [Compound 4.13a, (S-3-Methyl-piperidin-1-yl)-[6-(6-methyl-pyridin-3-ylamino)-pyridin-3-yl]-methanone] | 97%

Other lines, results leading:

Row | mGluR5 Activity inh. at 10 μM [%] | SMILES
4 | 51% | O=C(c1ccc(Nc2ccc(Cl)cc2)nc1)N1C2CCC1CC(O)C2 (centres unmarked) [Compound 4.11, [6-(4-Chloro-phenylamino)-pyridin-3-yl]-(3-hydroxy-8-aza-bicyclo[3.2.1]oct-8-yl)-methasone]
5 | 98% | Cc1ccc(Nc2ncc(C(=O)N3CCCC4CCCC43)cc2Cl)cn1 (centres unmarked) [Compound 4.25, [5-Chloro-6-(6-methyl-pyridin-3-ylamino)-pyridin-3-yl]-(octahydro-[1]pyrindin-1-yl)-methasone]
6 | 85% | CCC[C@H]1CCCCN1C(=O)c1cnc(Nc2ccc(C)nc2)c(Cl)c1 [Compound 4.35, [5-Chloro-6-(6-methyl-pyridin-3-ylamino)-pyridin-3-yl]-((S)-2-propyl-piperidin-1-yl)-methasone]
7 | 97% | C/C=C\C1CCCCN1C(=O)c1cnc(Nc2ccc(C)nc2)c(Cl)c1 (centres unmarked) [Compound 4.56, [5-Chloro-6-(6-methyl-pyridin-3-ylamino)-pyridin-3-yl]-[((Z)-2-propenyl)-piperidin-1-yl]-methanone]
8 | 97% | CCOCC1CCCCN1C(=O)c1cnc(Nc2ccc(C)nc2)c(Cl)c1 (centres unmarked) [Compound 4.60, [5-Chloro-6-(6-methyl-pyridin-3-ylamino)-pyridin-3-yl]-(2-thoxymethyl-piperidin-1-yl)-methanone]
9 | 95% | CCC(CC)C1OCCCCN1C(=O)c1cnc(Nc2ccc(C)nc2)c(Cl)c1 (centres unmarked) [Compound 4.67]

Same assay, conditions: read-out: mGluR5 Activity inh. at 10 μM [%]

Row | inhibition at 10 µM | SMILES
10 | 57% | COc1ccc(Nc2ccc(C(=O)N3C[C@@H](C)O[C@@H](C)C3)cn2)cc1 [Compound 1.21, (cis-2,6-Dimethyl-morpholin-4-yl)-[6-(4-methoxy-phenylamino)-pyridin-3-yl]-methanone hydrochloride]
11 | 93% | Cc1ccc(Nc2ncc(C(=O)N3CCC[C@@H]4CCC[C@@H]43)cc2Cl)cn1 [Compound 4.26, [5-Chloro-6-(6-methyl-pyridin-3-ylamino)-pyridin-3-yl]-(4aS,7aS)-octahydro-[1]pyrindin-1-yl-methanone]

Reference: US20120309742A1, “USE OF METABOTROPIC GLUTAMATE RECEPTORS” (priority 2006, published 2012)
